Data: patent US10160785B2, “Antimicrobial peptides and their use for the treatment of topical infections” (priority 2015, dated 2018)

Key:
[1] = tested on: P. aeruginosa (Liberec) biofilm; experiment: Bacterial biofilm, remaining metabolic activity (MTT); assay type: cell-based, Pseudomonas aeruginosa; settings: remaining metabolic activity of biofilm, 20 h
Experimental: (§1) Inoculum of S. aureus (Liberec) or P. aeruginosa (Liberec) cultivated overnight in BHI medium was diluted with fresh BHI medium containing 1% glucose to a final concentration to be ca. 10^8 CFU/ml. Then this was pipetted (100 μl) to 96-multiwell polystyrene plate which was incubated at 37° C. under rotary shaking (300 RPM) for 24 h. Medium without bacteria in the wells was used as a negative control. Supernatant from each well was drained and the biofilm formed on the bottom and on the walls of the wells was cautiously washed three times by sterile physiological solution (300 μl). The peptides tested in the concentrations of 1-128 μmol.l^−1 were prepared by twofold serial dilution of their stock solution (1 mmol.l^−1) in fresh BHI medium and then pipetted (100 μl) to the wells with formed biofilms. The biofilms covered by BHI medium without peptide were used as a positive control. The plates were then incubated for 20 h as described above. After that the liquid was drained out and wells were washed twice with sterile physiological solution.
(§2) The metabolic activity of surviving bacterial cells in the biofilm was determined by staining with MTT (3-(4,5-dimethylthiazol-2-yl)-2,5-diphenyl-2H-tetrazolium bromide) as follows: The mixture of BHI medium (100 μl) and 10 μl of the stock solution of MTT (5 mg/ml in physiological solution) was added to each well and the plate was incubated 40 min at 37° C. The liquid was drained out and the insoluble formazan crystals formed by reduction inside the biofilm were dissolved with dimethyl sulphoxide (100 μl). The intensity of staining in each well was measured as absorbance at 540 nm on a Tecan Infinite M200 Pro reader (Tecan GmbH, Austria). Remaining activity of surviving cells inside the biofilm was expressed for each well in percentage according to the following equation:
(§3) [formula] where A is the absorbance of the tested compound, ABL is the absorbance of the negative control, and AC is the absorbance of control biofilm.

[2] = tested on: S. aureus (Liberec) biofilm; experiment: as above; assay type: cell-based, Staphylococcus aureus; settings: remaining metabolic activity of biofilm, 20 h
Experimental: as §1, §2, §3

[3] = tested on: Candida albicans (Olomouc) biofilm; experiment: C. albicans biofilm, remaining metabolic activity (XTT); assay type: cell-based
Experimental: Candida albicans (Olomouc) was sub-cultured overnight in YPD medium (10 g yeast extract (DIFCO, USA), 20 g peptone (OXOID), 20 g glucose (Penta) dissolved in 1 L of distilled water) at constant shaking (100 RPM) at 37° C. Next day, the overnight culture was diluted 1:100 into fresh YPD medium and incubated at constant shaking (200 RPM) at 37° C. until the mid-exponential growth phase was reached. Then the cells were harvested and washed twice by centrifugation in physiological solution (5000 RPM; 5 min). Cells were suspended in sterile salt solution and their optical density was determined at 600 nm.
A final yeast suspension was prepared at a cell density of 1×10^6 CFU (corresponding to optical density of 0.17 at 600 nm) in RPMI 1640 medium with L-glutamine (BioSera), NaHCO3 (2 g/l; Penta) and 0.165 mol.l^−1 MOPS (Duchefa)—further as RPMI broth medium 1.
Biofilms were formed on commercially available sterile, polystyrene, flat-bottomed, 96-well microtiter plates (TPP, SW). Cell suspension (100 μl) was pipetted into selected wells of a microtiter plate and incubated without shaking for 2 hours at 37° C. Afterwards, the wells were washed twice with sterile PBS buffer (1.44 g Na2HPO4, 0.24 g KH2PO4, 0.2 g KCl and 8 g NaCl in 1 l distilled water, pH=7; Penta). Fresh RPMI broth medium 1 (100 μl) was added to each well and the plate was sealed with parafilm and incubated without shaking for 48 hours at 37° C.
Planktonic and non-adherent cells were removed by threefold washing of the biofilm with sterile PBS buffer (200 μl). A twofold serial dilution was used to reach required peptide concentration (in RPMI broth medium 1) in each well. Peptide concentrations range was between 0.39-200 μmol.l^−1. Plates were then sealed with parafilm and incubated for 20 hours at 37° C.
The metabolic activity of surviving Candida cells in the treated biofilm was determined by staining with XTT (2,3-Bis(2-methoxy-4-nitro-5-sulphophenyl)-2H-tetrazolium-5-carboxanilide). Stock solution of PMS (phenazine methosulfate; 7.5 g/l; SIGMA, Czech Republic) stored at −20° C. was diluted in PBS buffer 1:100. Diluted PMS was further mixed (2:25) with stock solution of XTT (0.5 g/l; Alchimica, Slovakia) dissolved in PBS/RPMI broth medium (1:1). Mixture (100 μl) of PMS and XTT was added into treated biofilm in the wells and incubated for 90 min at 37° C. Then the intensity of staining in each well was measured as absorbance at 540 nm on a Tecan Infinite M200 Pro reader (Tecan GmbH, Austria). Remaining metabolic activity of the cells in the biofilm was expressed for each well in percentage and calculated as follows:
[formula] where A is the absorbance of tested compound, ABL is the absorbance of negative control and AC is the absorbance of control untreated biofilm. The non-inoculated wells served as negative control. Inoculated wells not treated with compound served as positive control. Amphotericin B was used as control drug to ensure quality of Candida albicans. The values of remaining metabolic activity of treated biofilms are shown at Table 5.

[4] = in vitro; settings: human
Experimental: The peptides in the concentrations 2-200 μmol.l^−1 were incubated with the suspension of human red blood cells (5% v/v) for 1 h at 37° C. in a physiological solution at a final volume of 0.2 ml. The samples were then centrifuged for 5 min at 250 g, and the absorbance of the supernatant was determined at 540 nm. Supernatants of red blood cells suspended in physiological solution and in 0.2% (v/v) TRITON X100 in physiological solution served as controls for zero hemolysis (blank) and 100% hemolysis, respectively. Hemolytic activity is expressed as the peptide concentration required for lysis of 50% of human erythrocytes in the assay (LC50).

[5] = peptide concentration 8 μmol · l^−1
[6] = peptide concentration 16 μmol · l^−1
[7] = peptide concentration 32 μmol · l^−1
[8] = peptide concentration 64 μmol · l^−1
[9] = peptide concentration 128 μmol · l^−1
[10] = peptide concentration 6.25 μmol · l^−1, 20 hours
[11] = peptide concentration 12.5 μmol · l^−1, 20 hours
[12] = peptide concentration 25 μmol · l^−1, 20 hours
[13] = peptide concentration 50 μmol · l^−1, 20 hours
[14] = peptide concentration 100 μmol · l^−1, 20 hours
[15] = peptide concentration 200 μmol · l^−1, 20 hours

Substance	Metabolic activity (%) P. aeruginosa (Liberec) [1, 5] [%]	Metabolic activity (%) P. aeruginosa (Liberec) [1, 6] [%]	Metabolic activity (%) P. aeruginosa (Liberec) [1, 7] [%]	Metabolic activity (%) P. aeruginosa (Liberec) [1, 8] [%]	Metabolic activity (%) P. aeruginosa (Liberec) [1, 9] [%]	Metabolic activity (%) S. aureus (Liberec) [2, 5] [%]	Metabolic activity (%) S. aureus (Liberec) [2, 6] [%]	Metabolic activity (%) S. aureus (Liberec) [2, 7] [%]	Metabolic activity (%) S. aureus (Liberec) [2, 8] [%]	Metabolic activity (%) S. aureus (Liberec) [2, 9] [%]	Metabolic activity of C. albicans (%) [3, 10] [%]	Metabolic activity of C. albicans (%) [3, 11] [%]	Metabolic activity of C. albicans (%) [3, 12] [%]	Metabolic activity of C. albicans (%) [3, 13] [%]	Metabolic activity of C. albicans (%) [3, 14] [%]	Metabolic activity of C. albicans (%) [3, 15] [%]	CC50 at 1 h [4] [µM]
H-GIMSSLMKKLAAIIKK-NH2 [IX]	73.6	76.8	85.3	83.8	34.2	79.1	53.6	54.0	30.5	23.6	93.2	54.3	2.3	1.5	1.3	0.8	> 400
H-GIMSSLMKKLKKIIAK-NH2 [I]	86.4	87.7	89.6	62.9	43.4	111.6	103.3	111.2	101.9	11.4	100.4	108.0	130.7	57.5	28.2	8.1	> 400
